Measurements reported in patent US20260034123A1 (Cedilla Therapeutics, Inc., priority 2022, published 2026).

Key:
CDK2/Cyclin E1 = CDK2/Cyclin E1 (Homo sapiens, UniProt P24941); assay: ADP-Glo Luminescent Kinase Assay (CDK2/E1-37C); assay type: biochemical; conditions: 0.18 nM CDK2/Cyclin E1, 100 μM ATP, Histone H1, 37° C.; read-out: ADPGLO (CDK2/E1-37C): IC50
Protocol: Inhibition of CDK2/Cyclin E1 activity by the presence of small molecules was evaluated using ADP-Glo Luminescent Kinase Assay (Promega). Activated CDK2/Cyclin E1 was incubated with its substrate Histone H1 (SignalChem H10-54N) in the kinase reaction buffer (100 μM ATP, 50 mM HEPES pH 7.5, 10 mM MgCl2, 1 mM EDTA, 2 mM DTT, 0.01% Brij35, 0.5 mg/mL BSA). Luminescence was recorded with an Envision plate reader (PerkinElmer).
Dose titrations of inhibitors in 100% DMSO were combined with 0.36 nM CDK2/Cyclin E1 in reaction buffer. The mixtures were incubated for 60 minutes at 37° C. before the addition of ATP and Histone H1 substrate to initiate the kinase reaction. The final conditions were 0.18 nM CDK2/Cyclin E1, 100 μM ATP, and […] Histone H1. The reactions were incubated at 37° C. for 90 minutes before being stopped with the addition of ADP-Glo reagent. This mixture was incubated at room temperature for 60 minutes before Kinase Detection Solution is added to generate luminescence. The stopped reactions were analyzed on an Envision plate reader. The conversion ratios were normalized to yield % activity, plotted against compound concentration, and fit to a four-parameter equation to determine the IC50 for each compound.

Kuramochi cells RB-WT = assay: IncuCyte Kuramochi cell proliferation assay, RB-WT; assay type: cell-based; conditions: 72 hours, cell count
Protocol: IncuCyte® assay was used to measure the effect of disclosed compounds on cell proliferation. Fluorescent microscopy images of cells were taken immediately after compound treatment and 72 hours later. Image analysis software was used to obtain cell counts as a function of compound concentration. Kuramochi cells labeled with mApple-H2B were seeded on 384-well assay-ready plates. Plates were placed in an IncuCyte® (Sartorius) and scanned at 0 and 72 hours. IncuCyte® software was used to count the number of fluorescent nuclei in each well. The fold change in cell count from 0 to 72 hours in wells treated with increasing compounds concentrations (10 pts, 1/2 log dilution, 20 µM top concentration) was normalized to DMSO control wells. The normalized cell counts were fit with dose response curves and a GI50 was calculated.

Row | SMILES | IC50 (CDK2/Cyclin E1) [µM] | IC50 (Kuramochi cells RB-WT) [µM]
1 | O=C(NS(=O)(=O)c1cccc(C2CCCCC2)c1)C1CN(C(=O)c2cnn(Cc3ccccc3)c2)CC12CN(C(=O)[C@H]1CC1(F)F)C2 (stereo partly drawn) [Compound I-1, 6-(1-benzyl-1H-pyrazole-4-carbonyl)-N-((3-cyclohexylphenyl)sulfonyl)-2-((R)-2,2-difluorocyclopropane-1-carbonyl)-2,6-diazaspiro[3.4]octane-8-carboxamide] | 5 to 10 | > 10
2 | N#Cc1ccc(Cn2cc(C(=O)N3CC(CS(=O)(=O)Cc4cccc(-c5ccc(C(F)(F)F)cc5)n4)C4(C3)CN(C(=O)C3(C(F)(F)F)CC3)C4)cn2)cc1 (stereo not shown) [Compound I-2] | 5 to 10 | > 10
3 | O=C(c1cnc(O)cn1)N1CC(CS(=O)(=O)Cc2cccc(-c3ccc(C(F)(F)F)cc3)n2)C2(C1)CN(C(=O)[C@H]1CC1(F)F)C2 (stereo partly drawn) [Compound I-3, (2-((R)-2,2-difluorocyclopropane-1-carbonyl)-8-((((6-(4-(trifluoromethyl)phenyl)pyridin-2-yl)methyl)sulfonyl)methyl)-2,6-diazaspiro[3.4]octan-6-yl)(5-hydroxypyrazin-2-yl)methanone] | > 10 | > 10
4 | O=C(O)c1c(COC[C@@H]2CN(C(=O)c3cnn(Cc4ccc(F)cc4)c3)CC23CN(C(=O)C2(C(F)(F)F)CC2)C3)cccc1C1CCC(F)(F)CC1 [Compound I-51, (S)-2-(4,4-difluorocyclohexyl)-6-(((6-(1-(4-fluorobenzyl)-1H-pyrazole-4-carbonyl)-2-(1-(trifluoromethyl)cyclopropanecarbonyl)-2,6-diazaspiro[3.4]octan-8-yl)methoxy)methyl) benzoic acid] | ≤ 0.5 | 5 to 10
5 | O=C(O)c1c(COCC2CN(C(=O)c3cnn(Cc4ccc(C(F)(F)F)cc4)c3)CC23CN(C(=O)C2(C(F)(F)F)CC2)C3)cccc1C1CCC(C(F)(F)F)CC1 (stereo not shown) [Compound I-52, 2-(((6-(1-(4-(trifluoromethyl)benzyl)-1H-pyrazole-4-carbonyl)-2-(1-(trifluoromethyl)cyclopropane-1-carbonyl)-2,6-diazaspiro[3.4]octan-8-yl)methoxy)methyl)-6-(4-(trifluoromethyl)cyclohexyl)benzoic acid] | 5 to 10 | > 10
6 | O=C(NS(=O)(=O)c1cccc(C2CCOCC2)c1)C1CN(c2cc(F)cc3ncsc23)CC12CN(C(=O)C1(C(F)(F)F)CC1)C2 (stereo not shown) [Compound I-53, 6-(5-fluorobenzo[d]thiazol-7-yl)-N-((3-(tetrahydro-2H-pyran-4-yl)phenyl)sulfonyl)-2-(1-(trifluoromethyl)cyclopropane-1-carbonyl)-2,6-diazaspiro[3.4]octane-8-carboxamide] | > 10 | > 10
7 | CC1(C)C[C@@H]1C(=O)N1CC2(CN(C(=O)c3cnn(Cc4ccccc4C(=O)O)c3)C[C@H]2COCc2cccc(C3CCC(C(F)(F)F)CC3)n2)C1 (stereo partly drawn) [Compound I-54, 2-((4-((S)-2-((S)-2,2-dimethylcyclopropane-1-carbonyl)-8-(((6-(4-(trifluoromethyl)cyclohexyl)pyridin-2-yl)methoxy)methyl)-2,6-diazaspiro[3.4]octane-6-carbonyl)-1H-pyrazol-1-yl)methyl)benzoic acid] | ≤ 0.5 | > 10
8 | COC(=O)c1c(O)cc(COCC2CN(C(=O)c3cnn(Cc4ccc(C(F)(F)F)cc4)c3)CC23CN(C(=O)C2(C(F)(F)F)CC2)C3)cc1-c1ccc(C(F)(F)F)cc1 (stereo not shown) [Compound I-55, methyl 3-hydroxy-4′-(trifluoromethyl)-5-(((6-(1-(4-(trifluoromethyl)benzyl)-1H-pyrazole-4-carbonyl)-2-(1-(trifluoromethyl)cyclopropane-1-carbonyl)-2,6-diazaspiro[3.4]octan-8-yl)methoxy)methyl)-[1,1′-biphenyl]-2-carboxylate] | > 10 | 5 to 10
9 | CC1(C)C[C@@H]1C(=O)N1CC2(CN(C(=O)c3cncs3)CC2COCC(=O)N2CCC(c3ccc(C(=O)O)cc3OC3CCCCC3)CC2)C1 (stereo partly drawn) [Compound I-56, 3-(cyclohexyloxy)-4-(1-(2-((2-((S)-2,2-dimethylcyclopropane-1-carbonyl)-6-(thiazole-5-carbonyl)-2,6-diazaspiro[3.4]octan-8-yl)methoxy)acetyl)piperidin-4-yl)benzoic acid] | 5 to 10 | > 10
10 | CC(C)(C)OC(=O)c1c(COCC2CN(c3cc(F)cc4ncsc34)CC23CN(C(=O)C2(C(F)(F)F)CC2)C3)cccc1C1CCC(C(F)(F)F)CC1 (stereo not shown) [Compound I-57, tert-butyl 2-(((6-(5-fluorobenzo[d]thiazol-7-yl)-2-(1-(trifluoromethyl)cyclopropane-1-carbonyl)-2,6-diazaspiro[3.4]octan-8-yl)methoxy)methyl)-6-(4-(trifluoromethyl)cyclohexyl)benzoate] | > 10 | > 10
11 | O=C(NS(=O)(=O)c1cccc(C2CCOCC2)c1)[C@@H]1CN(C(=O)c2cnn(Cc3ccc(C(F)(F)F)cc3)c2)CC12CN(C(=O)C1(C(F)(F)F)CC1)C2 [Compound I-58, (S)—N-((3-(tetrahydro-2H-pyran-4-yl)phenyl)sulfonyl)-6-(1-(4-(trifluoromethyl)benzyl)-1H-pyrazole-4-carbonyl)-2-(1-(trifluoromethyl)cyclopropane-1-carbonyl)-2,6-diazaspiro[3.4]octane-8-carboxamide] | > 10 | > 10
12 | N#Cc1ccc(Cn2cc(C(=O)N3CC(C(=O)NS(=O)(=O)c4cccc(C5(C(F)(F)F)CC5)c4)C4(C3)CN(C(=O)C3(C(F)(F)F)CC3)C4)cn2)cc1 (stereo not shown) [Compound I-59, 6-(1-(4-cyanobenzyl)-1H-pyrazole-4-carbonyl)-2-(1-(trifluoromethyl)cyclopropane-1-carbonyl)-N-((3-(1-(trifluoromethyl)cyclopropyl)phenyl)sulfonyl)-2,6-diazaspiro[3.4]octane-8-carboxamide] | > 10 | > 10
13 | O=C(O)c1ccc(C2CCN(C(=O)COCC3CN(C(=O)c4cnn(Cc5ccccc5)c4)CC34CN(C(=O)C3(C(F)(F)F)CC3)C4)CC2)c(OC2CCCCC2)c1 (stereo not shown) [Compound I-60, 4-(1-(2-((6-(1-benzyl-1H-pyrazole-4-carbonyl)-2-(1-(trifluoromethyl)cyclopropane-1-carbonyl)-2,6-diazaspiro[3.4]octan-8-yl)methoxy)acetyl)piperidin-4-yl)-3-(cyclohexyloxy)benzoic acid] | > 10 | > 10
14 | CC(C)(C(=O)N1CC2(CN(C(=O)c3cnn(Cc4ccc(F)cc4)c3)C[C@H]2COCc2ccccc2C(=O)O)C1)C(F)(F)F [I′-11] | > 10 | –
15 | CC(C)(C(=O)N1CC2(CN(C(=O)c3cnn(Cc4ccc(F)cc4)c3)C[C@H]2COCc2cccc(C3=CCCC3)c2C(=O)O)C1)C(F)(F)F [I′-12] | ≤ 0.5 | –
16 | CC(C)(C(=O)N1CC2(CN(C(=O)c3cnn(Cc4ccc(F)cc4)c3)C[C@H]2COCc2c(F)ccc(C3CCC(F)(F)CC3)c2C(=O)O)C1)C(F)(F)F [I′-13] | ≤ 0.5 | –
17 | CC(C)(C(=O)N1CC2(C1)CN(c1cc(F)c(F)c3ncsc13)C[C@H]2COCc1c(F)ccc(C2CCC(F)(F)CC2)c1C(=O)O)C(F)(F)F [I′-14, (S)-2-(((6-(4,5-difluorobenzo[d]thiazol-7-yl)-2-(3,3,3-trifluoro-2,2-dimethylpropanoyl)-2,6-diazaspiro[3.4]octan-8-yl)methoxy)methyl)-6-(4,4-difluorocyclohexyl)-3-fluorobenzoic acid] | ≤ 0.5 | –
18 | O=C(O)c1c(COC[C@@H]2CN(C(=O)c3cnn(Cc4ccc(F)cc4)c3)CC23CN(C(=O)C2CCOCC2)C3)cccc1C1CCC(F)(F)CC1 [I′-15] | 0.5 to 5 | –
19 | CC(C)C(=O)N1CC2(CN(C(=O)c3cnn(Cc4ccc(F)cc4)c3)C[C@H]2COCc2cccc(C3CCC(F)(F)CC3)c2C(=O)O)C1 [I′-16, (S)-2-(4,4-difluorocyclohexyl)-6-(((6-(1-(4-fluorobenzyl)-1H-pyrazole-4-carbonyl)-2-isobutyryl-2,6-diazaspiro[3.4]octan-8-yl)methoxy)methyl)benzoic acid] | ≤ 0.5 | –
20 | O=C(O)c1c(COC[C@@H]2CN(C(=O)c3cnn(Cc4ccc(F)cc4)c3)CC23CN(C(=O)C24CC(C2)C4)C3)cccc1C1CCC(F)(F)CC1 [I′-17, (S)-2-(((2-(bicyclo[11.1.1]pentane-1-carbonyl)-6-(1-(4-fluorobenzyl)-1H-pyrazole-4-carbonyl)-2,6-diazaspiro[3.4]octan-8-yl)methoxy)methyl)-6-(4,4-difluorocyclohexyl)benzoic acid] | ≤ 0.5 | –
21 | CN(C)CCNC(=O)c1c(COC[C@@H]2CN(C(=O)c3cnn(Cc4ccc(F)cc4)c3)CC23CN(C(=O)C(C)(C)C(F)(F)F)C3)cccc1C1CCC(F)(F)CC1 [I′-18] | ≤ 0.5 | –
